{"source": "patent US9802880B2", "about": "“Cannabigerol derivatives” (VIVACELL BIOTECHNOLOGY ESPAÑA S.L., priority 2014, dated 2017)", "key": {"N2a cells [1]": {"tested_on": "N2a cells", "assay": "Cytotoxicity, MTT assay, N2a cells", "type": "cell-based", "conditions": "24 h, FIG. 3A", "description": "(§1) The cell lines N2a (A), HT22 (B) and MO3.13 (C) cells were incubated for 24 h with the indicated doses of CBG-Q (Compound I) versus compounds II to XII, and cell viability was quantified by MTT assay. […] Control was set as 100% and data were referred to that value.\n(§2) Electrophilic quinones induce cytotoxicity and activate the Nrf2 pathway, a cellular sensor of reactive oxygen species generation. In FIG. 3 it is analyzed the induced cell death in three different types of cells (N2a, HT22 and MO3.13) by compounds CBG-Q (compound I) and compounds (II) to (XII).\n(§3) N2A, HT22 and MO3.13 cell viability was determined by the MTT assay. Briefly, cells were seeded at a density of 10^4 cells/well in 96-well plates, 200 μl cell suspension per well, and cultured for 24 hours. Cells were then incubated with several concentrations of the compounds for 24 hours. […] Finally the absorbance was measured at 550 nm using a TriStar LB 941 (Berthold Technologies, GmbH & Co. KG). […] The cell lines N2a (FIG. 3A), HT22 (FIG. 3B) and MO3.13 (FIG. 3C) cells were incubated for 24 h with the indicated doses of compounds CBG-Q (compound I) and compounds (II) to (XII), and cell viability was quantified by MTT assay. Results are shown as mean±S.D. from at least three independent experiments, and expressed as percentage of cell viability against the control sample (−). […]"}, "HT22 cells": {"tested_on": "HT22 cells", "assay": "Cytotoxicity, MTT assay, HT22 cells", "type": "cell-based", "conditions": "24 h, FIG. 3B", "description": "as §1, §2, §3"}, "MO3.13 cells": {"tested_on": "MO3.13 cells", "assay": "Cytotoxicity, MTT assay, MO3.13 cells", "type": "cell-based", "conditions": "24 h, FIG. 3C", "description": "as §1, §2, §3"}, "Nrf2": {"tested_on": "Nrf2", "assay": "Nrf2 transcriptional assay in HaCaT-ARE-Luc cells", "type": "cell-based", "conditions": "6 h, FIG. 4", "description": "HaCaT-ARE-Luc cells were incubated for 6 h with compounds CBG-Q compound I) and with compounds I to VI (A) or with compounds VII to XII (B) at the indicated concentrations, and protein lysates were prepared and analysed for luciferase activity. The pro-oxidant tert-Butylhydroquinone (tBHQ) at 20 μM, a compound that induces cellular oxidative stress, was used as positive control. […] The results ratify that the reactive electrophilic activity associated to CBG-Q (compound I) is missing in all the compounds (derivatives in position 2) described in the present invention.\nTo study the activity of the compounds on the Nrf2 pathway we generated the HaCaT-ARE-Luc cell line. Nqo1 ARE-Luc reporter plasmid and pPGK-Puro plasmid were co-transfected into HaCat cells using Lipofectamine© 2000 transfection reagent (Life Technologies, Carlsbad, Ca, USA). Stable transformants were selected and maintained in RPMI 1640 containing 10% FBS, 1% penicillin-streptomycin and […] puromycin. HaCaT-ARE-Luc cells were incubated for 6 h with CBG-Q (compound I) and with compounds (II)-(VI) (A) or with compounds (VII)-(XII) (B) at the indicated concentrations, and protein lysates were prepared and analysed for luciferase activity as described in example 1. The prooxidant tert-Butylhydroquinone (tBHQ) at 20 μM was used as positive control. […]"}, "3NP-lesioned mice": {"tested_on": "3NP-lesioned mice", "assay": "Huntington's disease 3NP model, behavioral score", "type": "in vivo, C57BL/6 mice", "conditions": "10 mg/kg i.p., four injections, FIG. 9", "description": "Mice were subjected to behavioral tests for determining their neurological status after the treatment with compounds I (10 mg/kg) (A), III (10 mg/kg) (B) and XII (10 mg/kg) (C). Hind limb clasping, Locomotor activity, Hind limb dystonia and Truncal Dystonia were rated from 0 to 2 based on severity: a score of 0 typically indicates normal function and 2 seriously affected. Values are expressed as means±SEM for 8 animals per group.\n(§4) Lesions of the striatum were induced with 3-NP in adult (16 week old; 30 g) male C57BL/6 mice (Harlan Ibérica, Barcelona, Spain). To this end, mice were subjected to seven intraperitoneal (i.p.) injections of 3NP (one injection each 12 hours) at a dose of 50 mg/kg (prepared in phosphate-buffered saline) for 3 days. These animals and their respective non-lesioned controls were used for pharmacological studies with compounds CBG-Q (compound I) and with compounds III and XII (FIG. 9). At least 6-8 animals were used per experimental group. Treatments consisted of four i.p. injections of the compounds at the indicated doses (one injection each 24 hours), or vehicle (DMSO 0.2%, BSA 5% in PBS) 30 min before the injections of 3NP. All animals were euthanized 12 hours after the last 3NP injection. Once euthanized, animals were dissected and their brains were rapidly removed. The right hemisphere was used to dissect the striatum, which was quickly frozen in RNAlater (Sigma-Aldrich, Germany) to analyzed inflammatory markers were by Real Time PCR. The left hemisphere was fixed in fresh 4% paraformaldehyde (in 0.1M phosphate buffered-saline) for 48 hours at 4° C. and embedded in paraffin wax for histological analysis. Mice were subjected to behavioral tests for determining their neurological status. We evaluated the general locomotor activity, the hindlimb clasping and dystonia, and the truncal dystonia. All behavioral tests were conducted prior to drug injections to avoid acute effects of the compounds under investigation."}, "N2a cells [2]": {"tested_on": "N2a cells", "assay": "Neuroprotection assay, glutamate-induced excitotoxicity in N2a cells", "type": "cell-based", "conditions": "1 h pre-incubation, then 5 mM glutamate 24 h, FIG. 5", "description": "N2a cells were pre-incubated for 1 h with compounds (II) to (V) and (XII) at the indicated concentrations. Then, cells were treated for 24 h with 5 mM glutamate to induce excitotoxicity, or cytotoxicity in neuronal cells induced by neurotransmitters. Cell viability was quantified by MTT assay. […] Control was set as 100% and data were referred to that value.\nCultured N2A cells were pre-incubated with the compounds II, III, IV, V and XII at the indicated concentrations for 1 h and then treated with 5 mM glutamate to induce excitotoxicity during 24 h (FIG. 5). Cytotoxicity was determined by the MTT method as described in example 3. Results are shown as mean±S.D. from at least three independent experiments, and expressed as percentage of cell viability against the control sample (−). Control was set as 100% and data were referred to that value."}, "EAE mice": {"tested_on": "EAE mice", "assay": "Experimental autoimmune encephalomyelitis (EAE), clinical score", "type": "in vivo, C57BL/6 mice", "conditions": "5 mg/kg daily from day 6 post-immunization for 21 days, FIG. 8", "description": "C57BL/6 mice were immunized with MOG35-55 and their clinical score evaluated daily. Mice were treated daily with compound (III) (10 mg/kg) on day 6 post-immunization and the 21 following days. […] Values are expressed as means±SEM for 10 animals per group.\nC57BL/6 mice were immunized with MOG35-55 and their clinical score evaluated daily. Mice were treated daily with compound (XII) (5 mg/kg) on day 6 post-immunization and the 21 following days. […] Values are expressed as means±SEM for 6 animals per group.\nEAE was induced in female C57BL/6 mice at 6-8 weeks of age by subcutaneous immunization with myelin oligodendrocyte glycoprotein polypeptide (MOG35-55) (300 μg) and 200 μg of Mycobacterium tuberculosis (H37Ra Difco, Franklin Lakes, N.J., USA) in a 1:1 mix with […] Freund's adjuvant (CFA, Sigma-Aldrich, Madrid, Spain). On the same day and 2 days later, mice were injected intraperitoneally (ip) with 200 ng of pertussis toxin (Sigma-Aldrich, Madrid, Spain) in 0.1 ml PBS. […] Treatment started at day 6 post-immunization (p.i.) and consisted in daily injections of compounds III (FIG. 6) and XII (FIG. 8) at the indicated doses or of the vehicle alone (DMSO/PBS) for the following 21 days. The mice were examined daily for clinical signs of EAE and disease scores were measured as follows: 0, no disease; 1, limp tail; 2, limp tail and hind limb weakness; 3, hind limb paralysis; 4, hind limb and front limb paralysis; 5, moribund and death. All animals were sacrificed 28 days (p.i.) for further analysis. Once sacrificed, animals were dissected and their spinal cords were rapidly removed and quickly frozen in RNAlater (Sigma-Aldric, Germany)."}, "[3]": {"tested_on": "COX-2, iNOS, TNFα and IL-6", "assay": "3NP model, inflammatory marker mRNAs in the striatum (real-time PCR)", "type": "in vivo, C57BL/6 mice", "conditions": "3NP-treated mice, 10 mg/kg, FIG. 10 and FIG. 11", "description": "Gene expression of inflammatory markers including COX-2, TNFα, IL-6 and iNOS, was down regulated in 3NP+compound III (10 mg/kg) treated mice compared with 3NP+Vehicle mice. Expression levels were calculated using the 2^−ΔΔct method. Values are expressed as means±SEM for 6 animals per group.\nGene expression of inflammatory markers including COX-2, TNFα, IL-6 and iNOS, was down regulated in 3NP+XII (10 mg/kg) treated mice compared with 3NP+Vehicle mice. Expression levels were calculated using the 2^−ΔΔct method. Values are expressed as means±SEM for 6 animals per group.\nLesions of the striatum were induced with 3-NP in adult (16 week old; 30 g) male C57BL/6 mice (Harlan Ibérica, Barcelona, Spain). […] The right hemisphere was used to dissect the striatum, which was quickly frozen in RNAlater (Sigma-Aldrich, Germany) to analyzed inflammatory markers were by Real Time PCR. […] We evaluated the general locomotor activity, the hindlimb clasping and dystonia, and the truncal dystonia. […]\nTotal RNA was isolated from striata (3NP model) or spinal cord (EAE model) using RNeasy Lipid Tissue Mini Kit (Qiagen, GmbH). The total amount of RNA extracted was quantitated by spectrometry at 260 nm and its purity from the ratio between the absorbance values at 260 and 280 nm. […] Expression levels were calculated using the 2^−ΔΔct method."}, "[4]": {"tested_on": "striatal neurons, astrocytes and microglia", "assay": "3NP model, immunohistochemistry of striatum (NeuN, GFAP, Iba-1)", "type": "in vivo, C57BL/6 mice", "conditions": "3NP-lesioned mice, 10 mg/kg", "description": "NeuN (neuronal marker), GFAP (astrocytes marker), and Ibal (microglia marker) were detected by immunostaining in the coronal sections of striatum of mice treated with vehicle, 3NP+ vehicle, 3NP+compoundXII (10 mg/kg) and XII (10 mg/kg). Quantification of NeuN (A), GFAP (B) and Ibal (C) positive cells in the mouse striatum. Total average number of neurons, astrocytes and microglia is shown. Values are expressed as means±SEM for 6 animals per group.\nas §4, with “investigation. […]” for “investigation.”"}}, "data": [{"smiles": "CCCCCC1=CC(=O)C(C/C=C(\\C)CCC=C(C)C)=C(O)C1=O", "note": "[CBG-Q, Cannabigerol hydroxy quinone]", "values": [{"measurement": "cytotoxic activity (cell viability, MTT)", "setting": "N2a cells [1]", "result": "cytotoxic activity"}, {"measurement": "cytotoxic activity (cell viability, MTT)", "setting": "HT22 cells", "result": "cytotoxic activity"}, {"measurement": "cytotoxic activity (cell viability, MTT)", "setting": "MO3.13 cells", "result": "cytotoxic activity"}, {"measurement": "Nrf2 activation (ARE-luciferase activity; reactive electrophilic activity)", "setting": "Nrf2", "result": "induces activation"}, {"measurement": "clinical symptoms induced by 3-NP intoxication (hind limb clasping, locomotor activity, hind limb dystonia, truncal dystonia)", "setting": "3NP-lesioned mice", "result": "unable to prevent the clinical symptoms"}]}, {"smiles": "CCCCCC1=C(C2=C(CCCCC)C(=O)C(O)=C(C/C=C(\\C)CCC=C(C)C)C2=O)C(=O)C(C/C=C(\\C)CCC=C(C)C)=C(O)C1=O", "note": "[Compound XII, 3,3′-bis((E)-3,7-dimethylocta-2,6-dienyl)-4,4′-dihydroxy-6,6′-dipentyl-1,1′-bi(cyclohexa-3,6-diene)-2,2′,5,5′-tetraone]", "values": [{"measurement": "protection from glutamate-induced cytotoxicity (cell viability, MTT)", "setting": "N2a cells [2]", "result": "protect neuronal cells from glutamate-induced apoptosis"}, {"measurement": "clinical symptoms in EAE mice", "setting": "EAE mice", "result": "alleviated the clinical symptoms in EAE mice to the same extent than compound III"}, {"measurement": "clinical symptoms induced by 3-NP intoxication (hind limb clasping, locomotor activity, hind limb dystonia, truncal dystonia)", "setting": "3NP-lesioned mice", "result": "clearly alleviates such symptomatology"}, {"measurement": "up-regulation of pro-inflammatory markers COX-2, iNOS, TNFα and IL-6 in the striatum", "setting": "[3]", "result": "attenuated the up-regulation"}, {"measurement": "striatal neurons, NeuN staining", "setting": "[4]; FIG. 12A", "result": "preservation of striatal neurons"}, {"measurement": "GFAP+ cells (astrocytes) in striatum", "setting": "[4]; FIG. 12B", "result": "counteracted the lost of GFAP^+ cells"}, {"measurement": "reactive microgliosis (Iba-1+ cells) in striatum", "setting": "[4]; FIG. 12C", "result": "prevented the induction of reactive microgliosis"}]}]}
